The source made the active and inactive calls. The calls are words filed in the database; no cut-off is given here.
Key:
Heart [1] = assay: Antiarrhythmic activity in langendorff ischemia-reperfused Sprague-Dawley rat heart assessed as cardiac protection at 1 uM; format: functional, tissue-based
Heart [2] = assay: Antiarrhythmic activity in langendorff ischemia-reperfused Sprague-Dawley rat heart assessed as cardiac protection at 3 uM; format: functional, tissue-based
Heart [3] = assay: AUC in isolated langendorff ischemia-reperfused Sprague-Dawley rat heart at 1 uM; format: ADME, tissue-based
Heart [4] = assay: Cardioprotective effect in isolated langendorff ischemia-reperfused Sprague-Dawley rat heart assessed as reduction of heart rate at 1 uM after 20 mins by RR interval ECG signal; format: functional; parameters: scale not given: the % may be the effect or the level left
Heart [5] = assay: Cardioprotective effect in isolated langendorff ischemia-reperfused Sprague-Dawley rat heart assessed as duration of QT intervals at 1 uM after 20 mins; format: functional
Heart [6] = assay: Cardioprotective effect in isolated langendorff ischemia-reperfused Sprague-Dawley rat heart assessed as duration of QTc intervals at 1 uM after 20 mins; format: functional
Heart [7] = assay: Cardioprotective effect in isolated langendorff ischemia-reperfused Sprague-Dawley rat heart assessed as reduction of heart rate at 0.3 uM after 20 mins by RR interval ECG signal; format: functional
Heart [8] = assay: Cardioprotective effect in isolated langendorff ischemia-reperfused Sprague-Dawley rat heart assessed as duration of QT intervals at 0.3 uM after 20 mins; format: functional
Heart [9] = assay: Cardioprotective effect in isolated langendorff ischemia-reperfused Sprague-Dawley rat heart assessed as duration of QTc intervals at 0.3 uM after 20 mins; format: functional
Heart [10] = assay: Cardioprotective effect in isolated langendorff ischemia-reperfused Sprague-Dawley rat heart assessed as reduction of heart rate at 3 uM after 20 mins by RR interval ECG signal; format: functional
Heart [11] = assay: Cardioprotective effect in isolated langendorff ischemia-reperfused Sprague-Dawley rat heart assessed as duration of QT intervals at 3 uM after 20 mins; format: functional
Heart [12] = assay: Cardioprotective effect in isolated langendorff ischemia-reperfused Sprague-Dawley rat heart assessed as duration of QTc intervals at 3 uM after 20 mins; format: functional
[13] = biological target: T1, Voltage-gated inwardly rectifying potassium channel KCNH2 (Cavia porcellus, UniProt O08703); assay: Inhibition of ERG in guinea pig ventricular myocytes assessed as blockade of rapid delayed rectifier potassium current by whole cell patch-clamp technique
T1 sequence (O08703 whole entry): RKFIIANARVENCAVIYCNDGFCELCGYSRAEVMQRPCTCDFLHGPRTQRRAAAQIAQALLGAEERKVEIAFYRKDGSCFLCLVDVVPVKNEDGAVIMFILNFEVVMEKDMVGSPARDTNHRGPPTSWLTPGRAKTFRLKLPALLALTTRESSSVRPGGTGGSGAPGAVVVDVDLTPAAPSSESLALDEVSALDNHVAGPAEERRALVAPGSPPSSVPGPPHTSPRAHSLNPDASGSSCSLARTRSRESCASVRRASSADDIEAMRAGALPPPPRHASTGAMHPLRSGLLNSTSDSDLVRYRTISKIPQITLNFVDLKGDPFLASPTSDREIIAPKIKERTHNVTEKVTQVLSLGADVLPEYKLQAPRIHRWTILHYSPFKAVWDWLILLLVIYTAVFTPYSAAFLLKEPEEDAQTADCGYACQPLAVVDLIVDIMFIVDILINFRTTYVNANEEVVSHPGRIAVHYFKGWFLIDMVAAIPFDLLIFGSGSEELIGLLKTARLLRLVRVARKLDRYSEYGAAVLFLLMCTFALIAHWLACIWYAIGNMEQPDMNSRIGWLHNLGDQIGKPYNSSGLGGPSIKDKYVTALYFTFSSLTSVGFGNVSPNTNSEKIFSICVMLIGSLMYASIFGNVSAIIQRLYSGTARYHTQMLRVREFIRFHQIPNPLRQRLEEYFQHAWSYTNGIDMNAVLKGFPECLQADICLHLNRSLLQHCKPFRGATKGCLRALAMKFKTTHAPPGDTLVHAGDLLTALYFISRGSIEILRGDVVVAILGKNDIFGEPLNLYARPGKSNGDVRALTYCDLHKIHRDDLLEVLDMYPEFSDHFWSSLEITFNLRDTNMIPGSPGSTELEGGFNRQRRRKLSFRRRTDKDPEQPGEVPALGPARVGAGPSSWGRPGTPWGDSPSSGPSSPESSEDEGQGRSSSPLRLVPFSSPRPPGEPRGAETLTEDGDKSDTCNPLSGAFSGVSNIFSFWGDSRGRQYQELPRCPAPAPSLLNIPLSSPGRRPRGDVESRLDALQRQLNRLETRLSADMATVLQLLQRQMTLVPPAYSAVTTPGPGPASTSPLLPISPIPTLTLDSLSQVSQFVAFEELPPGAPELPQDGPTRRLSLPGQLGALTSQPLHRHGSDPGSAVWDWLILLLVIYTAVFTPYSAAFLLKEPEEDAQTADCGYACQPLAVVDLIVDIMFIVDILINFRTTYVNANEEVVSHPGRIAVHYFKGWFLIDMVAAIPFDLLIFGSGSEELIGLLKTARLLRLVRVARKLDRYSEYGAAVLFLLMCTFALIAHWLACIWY

[14] = biological target: T2, Potassium voltage-gated channel subfamily KQT member 1 (Cavia porcellus, UniProt O70344); assay: Inhibition of KVLQT1/minK in guinea pig ventricular myocytes assessed as blockade of slow delayed rectifier potassium current by whole cell patch-clamp technique; format: cell-based, Ventricular myocyte
T2 sequence (O70344 whole entry): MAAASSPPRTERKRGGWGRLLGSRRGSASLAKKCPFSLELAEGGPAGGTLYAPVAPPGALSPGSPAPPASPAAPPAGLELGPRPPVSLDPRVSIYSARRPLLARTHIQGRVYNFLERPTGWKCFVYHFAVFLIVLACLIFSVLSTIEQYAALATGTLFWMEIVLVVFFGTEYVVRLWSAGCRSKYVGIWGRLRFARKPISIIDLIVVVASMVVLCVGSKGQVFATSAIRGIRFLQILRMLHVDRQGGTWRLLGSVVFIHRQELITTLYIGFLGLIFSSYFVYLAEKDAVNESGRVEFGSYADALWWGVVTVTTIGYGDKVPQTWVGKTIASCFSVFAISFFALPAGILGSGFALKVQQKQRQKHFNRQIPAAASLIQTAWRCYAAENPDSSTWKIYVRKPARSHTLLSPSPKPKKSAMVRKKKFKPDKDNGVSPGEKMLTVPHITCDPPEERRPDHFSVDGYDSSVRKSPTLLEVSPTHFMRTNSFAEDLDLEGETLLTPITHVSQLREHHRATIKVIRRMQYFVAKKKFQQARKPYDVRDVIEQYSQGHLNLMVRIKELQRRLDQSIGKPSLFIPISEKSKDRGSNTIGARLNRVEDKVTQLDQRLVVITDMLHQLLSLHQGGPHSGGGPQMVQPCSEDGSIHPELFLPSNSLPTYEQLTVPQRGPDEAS

Row | Compound | IC50 [14] [µM] | Activity (Heart [1]) | Activity (Heart [4]) [%] | Activity (Heart [5]) [%] | Activity (Heart [6]) | IC50 [13] [µM] | other results
1 | CCCOc1ccc2c(c1)/C(=N/N1CC(=O)N(CCCN3CCN(C)CC3)C1=O)CCO2 | – | Active | 18 | 13 | 2% | – | Activity (Heart [2]): Active; Activity (Heart [3]): Dose-dependent effect; Activity (Heart [7]): 198 bpm; Activity (Heart [8]): 186.7 ms; Activity (Heart [9]): 326.1 ms/s1/2; Activity (Heart [10]): 179 bpm; Activity (Heart [11]): 248 ms; Activity (Heart [12]): 400.9 ms/s1/2
2 | CCCCc1oc2ccccc2c1C(=O)c1cc(I)c(OCCN(CC)CC)c(I)c1 [AMIODARONE] | – | Active | 17 | 12 | 13% | – | –
3 | Cc1ccc2c(c1)/C(=N/N1CC(=O)N(CCCCN3CCN(C)CC3)C1=O)CCO2 | > 100 | – | – | – | – | > 10 | –
4 | CCOc1ccc2c(c1)/C(=N/N1CC(=O)N(CCCCN3CCN(C)CC3)C1=O)CCO2 | > 10 | – | – | – | – | 6.15 | –

Further lines, with some results ahead:

Row | IC50 [14] [µM] | Compound | Activity (Heart [1]) | Activity (Heart [4]) [%] | Activity (Heart [5]) [%] | Activity (Heart [6]) | IC50 [13] [µM] | other results
5 | 0.24 | CN1CCN(CCCCN2C(=O)CN(/N=C/c3ccc(-c4ccc(Cl)cc4)o3)C2=O)CC1 [AZIMILIDE] | Active | 12 | 8 | 316.7 ms/s1/2 | 0.18 | –
6 | 5.4 | O=C1CN(/N=C2\CCOc3ccc(O)cc32)C(=O)N1CCCCN1CCCCC1 | – | – | – | – | > 10 | –
7 | 0.0058 | CN1CCN(CCCN2C(=O)CN(/N=C3\CCOc4ccc(Cl)cc43)C2=O)CC1 | – | – | – | – | 3.87 | –
8 | 60 | CN1CCN(CCCCN2C(=O)CN(/N=C3\CCOc4ccc(O)cc43)C2=O)CC1 | – | – | – | – | > 100 | –
